US11207277B2, “Methods of treating diseases associated with high-fat diet and vitamin a deficiency using retinoic acid receptor agonists” (Cornell University, priority 2013, dated 2021)
“Also recorded” adds a separate entry of the source.

Legend:
Assay type in all cases: in vivo
[1] = system: c-peptide; test: c-peptide/glucagon immunofluorescence of pancreatic islets, HF-fed mice
Protocol: Immunofluorescence assays on cells and tissue sections were performed as previously described (29). Briefly, differentiated samples were fixed using 4% (w/v) paraformaldehyde and membrane permeabilization (for cells only) was done with 0.3% (w/v) Triton-X 100 (Sigma). Unspecific sites were blocked using 2% BSA for 30 min prior to incubation with rabbit polyclonal anti-PDX1 (Millipore, 06-1379, 1:1000), rabbit anti-C-Peptide (Cell Signaling, 4593, 1:500, Danvers, Mass.) and mouse monoclonal anti-Glucagon (Abcam, ab10988, 1:200) primary antibodies. Phalloidin-TRITC (Millipore, FAK100, 1:1000, Billerica, Mass.) was used to stain the actin stress fiber network (F-actin). Nuclei were stained using DAPI contained in Vectashield® mounting medium for fluorescence (Vector labs, Burlingame, Calif.). Quantitation of C-peptide positive stained cells and islet surface area was performed using MS-Elements Advanced Research software (Nikon).
WT male C57/BL6 male mice were maintained on either a standard laboratory chow-fed diet (CFD) with 13% kcal fat, (diet #5053, Lab Diet, Inc, St. Louis, Mo.) or a high fat, western style diet (HFD) with 60% kcals from fat, (diet #58126, Lab Diet, Inc., St. Louis, Mo.) for 4 months. […]

[2] = system: α-SMA; test: α-SMA immunofluorescence of kidney sections; details: HF diet mice + AC261066
Excerpt: (§1) WT male C57/BL6 male mice were maintained on either a standard laboratory chow-fed diet (CFD) with 13% kcal fat, (diet #5053, Lab Diet, Inc, St. Louis, Mo.) or a high fat, western style diet (HFD) with 60% kcals from fat, (diet #58126, Lab Diet, Inc., St. Louis, Mo.) for 4 months. One month after the start of the high fat diet treatment, the high fat diet group was further split into 2 groups for 3 months: i) high fat diet and the drinking water containing 1% DMSO; ii) high fat diet and the drinking water containing 1.5 mg/100 ml AC261066, a specific RARβ agonist. Then mice were sacrificed by cervical dislocation. Blood and various tissue samples were harvested.
Fresh mouse kidney samples were embedded in optimal cutting temperature (OCT) medium and immediately frozen to −70 centigrade. Cryosections were then fixed in 4% formaldehyde for 1 hr at room temp. Slides were then rinsed three times in deionized water (dH2O) for 30 s, followed by treatment with 0.5% Triton X-100 in PBS for 5 min. Sections were then washed three times with PBS for 5 min. Samples were with incubated 2% bovine serum albumin (BSA) for 30 min at room temperature to block for unspecific antibody binding. Following blocking, sections were washed three times in PBS and incubated with mouse monoclonal antibody against α-SMA (1:500) (Dako, Inc) for 24 h at 4° C. […]

[3] = system: 4-hydroxynonenal (4-HNE); test: 4-HNE staining of pancreas sections, HF-fed mice; details: HF diet mice, AC261066 1.5 mg/100 ml drinking water 3 months; vs HF-vehicle
Protocol: AC261066 was dissolved in dimethyl sulfoxide (DMSO) at the concentration of 1.5 mg/ml, and diluted in the drinking water for mice to the final concentration of 1.5 mg/100 ml.
as §1
Paraffin-embedded sections (from two to four mice per group) were deparaffinized and rehydrated, and antigen retrieval was performed using an antigen unmasking solution (Vector Laboratories, H-3300). After quenching endogenous peroxidase with 3% H2O2, the tissue sections were blocked with the blocking reagent (from the M.O.M. kit from Vector Laboratories). Then, tissue sections were incubated with a 4-HNE antibody (1:400; mouse monoclonal antibody: Abcam, ab48506) overnight at 4° C. […]

[4] = system: RARβ2; test: Semi-quantitative PCR of pancreatic tissue, HF-fed mice; details: HF diet mice + AC261066 vs HF-vehicle
Excerpt: as §1
Total RNA was extracted from mouse tissues using TRIzol reagent (Life technologies) and (1 μg) was used to synthesize cDNA. cDNA synthesis was performed at 42° C. for 1 h in a final volume of 20 μl using qScript (Quanta, MD). Semi-quantitative PCR were performed Taq DNA polymerase (Invitrogen, CA). Three step PCR was run as follows: 94° C. for 30 s, 58-64° C. for 45 s for primer annealing and 72° C. for 1 min for primer extension. The number of cycles for each primer pair for amplification in the linear range was determined experimentally. PCR products were resolved on 2% agarose gels and visualized by staining with ehtidium bromide. Primers for gene expression used were as follows: […]

SMILES: CCCCOCCOc1nc(-c2ccc(C(=O)O)c(F)c2)sc1C [AC261066]
- c-peptide level in pancreatic islets ([1]; HF diet + AC261066 vs HF diet mice): slightly reduces expression of c-peptide; also recorded: slightly decreased c-peptide level
- c-peptide staining in pancreatic islets ([1]; HF+AC261066 fed mice vs control diet controls): marked increase in c-peptide staining
- α-SMA positive areas in kidney [2]: diminished expression of the fibrogenic protein alpha-SMA; also recorded: not observed
- 4-HNE staining intensity (oxidative stress) in pancreatic islets [3]: reduces oxidative stress in the pancreatic islets; also recorded: markedly lower 4-HNE staining intensity levels
- RARβ (RARβ2) mRNA levels in pancreas [4]: increased the RAR 32 mRNA levels; also recorded: increased compared to HF-vehicle treated mice
